This test deals with T1, hCB1 (Homo sapiens, UniProt P21554).
T1 construct: made in house; host or cells: Sf9 insect cells (baculovirus), P2 membranes
Briefly: Agonist-induced GTP binding (GTPγ35S) assay at CB1, Example 8. It is filed as biochemical. The text has this: As noted above, compounds provided herein are CB1 antagonists. Certain such compounds are non-competitive CB1 antagonists. In addition, or alternatively, certain compounds provided herein display CB1 specificity. CB1 antagonist activity may be confirmed using an agonist-induced GTP binding assay, such as the assay described in Example 8. Such assays employ a CB1-containing cell membrane preparation (e.g., a preparation of membranes of insect cells that recombinantly express CB1) to determine the effect of a test compound on CB1 agonist-induced GTP binding to CB1. Briefly, a first cell membrane preparation comprising CB1 is contacted with: (i) labeled GTP; (ii) a CB1 agonist; and (iii) a test compound to yield a test membrane preparation. Simultaneously, or in either order, a second cell membrane preparation comprising CB1 is contacted with: (i) labeled GTP; and (ii) a CB1 agonist to yield a control membrane preparation. The labeled GTP is preferably GTPγ^35S; a representative CB1 agonist is CP55,940. Such contact is performed under conditions that are suitable for GTP binding to CB1, such as the conditions described in Example 8. The concentrations of labeled GTP and CB1 agonist used are generally concentrations that are sufficient to result in a detectable increase in the amount of labeled GTP bound to the membrane preparation in the presence of CB1 agonist. Such concentrations may be determined by routine experimentation; representative suitable concentrations are provided in Example 8. Generally, a range of test compound concentrations is used (e.g., ranging from 10^−10M to 10^−5M).
After sufficient contact (e.g., incubation) to allow GTP binding to the membrane preparations, a signal that corresponds to (represents) the amount of bound, labeled GTP is detected (typically, unbound labeled GTP is first removed via a washing step). In other words, simultaneously or in either order: (i) a test signal that represents an amount of bound, labeled GTP in the test membrane preparation is detected; and (ii) a control signal that represents an amount of bound, labeled GTP in the control membrane preparation is detected. The nature of the signal detected is determined by the type of label used. For example, if the GTP is radioactively labeled, the signal detected is radioactive decay (e.g., via liquid scintillation spectrometry). The CB1 antagonist activity of the test compound is then determined by comparing the test signal with the control signal.
This assay can also be used to detect partial agonism mediated by antagonist compounds. A compound being analyzed in this assay is referred to herein as a “test compound.” Agonist-stimulated GTP binding activity is measured as follows: Four independent baculoviral stocks (one directing the expression of hCB1 and three directing the expression of each of the three subunits of a heterotrimeric G-protein) are used to infect a culture of Sf9 cells as described in Example 5.
Agonist-stimulated GTP binding on purified membranes (as described in Example 6) is initially assessed using the cannabinoid agonist CP55,940 to ascertain that the receptor/G-protein-alpha-beta-gamma combination(s) yield a functional response as measured by GTP binding.
P2 membranes are resuspended by Dounce homogenization (tight pestle) in GTP binding assay buffer (50 mM Tris pH 7.4, 120 mM NaCl, 5 mM MgCl2, 2 mM EGTA, 0.1% BSA, 0.1 mM bacitracin, 10 KIU/mL aprotinin, 5 μM GDP) and added to reaction tubes at a concentration of 10 μg protein/reaction tube. After adding increasing doses of the agonist CP55,940 at concentrations ranging from 10^−12 M to 10^−6 M, reactions are initiated by the addition of […] GTPγ^35S. In competition experiments, non-radiolabeled test compounds are added to separate assays at concentrations ranging from 10^−10 M to 10^−5 M along with 1 nM CP55,940 to yield a final volume of 0.25 mL. […]

Setting [1] is: Table II, IC50 at CB1, GTP binding with 1 nM CP55,940, read-out: IC50.
Setting [2] is: IC50 at CB1, determined as described in Example 8, read-out: IC50.
Setting [3] is: Table I, IC50 at CB1, GTP binding with 1 nM CP55,940, read-out: IC50.

Where two headings read alike, the source gives them in different places.

T1 sequence (P21554 whole entry): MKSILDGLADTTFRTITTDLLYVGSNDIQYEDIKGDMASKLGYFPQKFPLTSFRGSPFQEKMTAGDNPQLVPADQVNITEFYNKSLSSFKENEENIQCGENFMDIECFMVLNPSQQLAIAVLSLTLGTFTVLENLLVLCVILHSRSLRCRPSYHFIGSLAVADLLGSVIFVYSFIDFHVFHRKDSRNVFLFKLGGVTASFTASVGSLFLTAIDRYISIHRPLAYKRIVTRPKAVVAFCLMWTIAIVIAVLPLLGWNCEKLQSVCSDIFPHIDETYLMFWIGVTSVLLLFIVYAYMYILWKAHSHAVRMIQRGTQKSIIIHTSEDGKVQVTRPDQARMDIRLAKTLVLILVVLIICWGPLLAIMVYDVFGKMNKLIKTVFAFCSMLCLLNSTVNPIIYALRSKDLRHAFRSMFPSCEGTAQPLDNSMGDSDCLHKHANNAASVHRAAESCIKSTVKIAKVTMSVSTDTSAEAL

As for `CC(C)Oc1ccc(NC(=O)Nc2ccccc2)cc1` [Compound 224, N-(4-isopropoxyphenyl)-N′-phenylurea], the IC50 (in general, the concentration needed to halve the response being measured) under setting [1] was less than 2 µM.
Consider `CC(C)(C)c1ccccc1NC(=O)Nc1ccc(OC(F)F)cc1` [Compound 604, 1-(2-tert-butylphenyl)-3-[4-(difluoromethoxy)phenyl]urea], for which the IC50 under setting [2] was less than 2 µM.
With `O=C(Nc1ccccc1)Nc1ccc2c(c1)CCC2` [Compound 161, N-(2,3-dihydro-1H-inden-5-yl)-N′-phenylurea], the IC50 under setting [1] was less than 2 µM.
Regarding `CCOc1cccc(NC(=O)Nc2cccc(C(=O)OC)c2)c1` [Compound 659, methyl 3-({[(3-ethoxyphenyl)amino]carbonyl}amino)benzoate], under setting [2], the half-inhibitory concentration (IC50) is less than 2 µM.
As to `O=C(Nc1ccc(OC(F)F)cc1)Nc1cccc(-c2nccs2)c1` [Compound 71], the half-inhibitory concentration (IC50) under setting [1] was less than 2 µM.
Turning to `CCC(=O)c1ccc(NC(=O)Nc2cccc(Cl)c2)cc1` [Compound 493, 1-(3-chlorophenyl)-3-(4-propionylphenyl)urea], under setting [2], the concentration for half-maximal inhibition (IC50) is less than 2 µM.
Regarding `CCOC(=O)c1cccc(NC(=O)Nc2ccc(C(C)C)cc2)c1` [Compound 649, ethyl 3-({[(4-isopropylphenyl)amino]carbonyl}amino)benzoate], the IC50 under setting [2] was less than 2 µM.
As to `CCOC(=O)c1ccc(NC(=O)Nc2cccc(F)c2)cc1` [Compound 475, ethyl 4-({[(3-fluorophenyl)amino]carbonyl}amino)benzoate], under setting [2], the IC50 is less than 2 µM.
Consider `CCOc1ccc(NC(=O)Nc2ccc(CC#N)cc2)cc1` [Compound 587, 1-[4-(cyanomethyl)phenyl]-3-(4-ethoxyphenyl)urea], for which the concentration for half-maximal inhibition (IC50) under setting [2] is less than 2 µM.
Consider `Cc1ccc(NC(=O)Nc2cccc(O)c2)cc1F` [Compound 759, 1-(3-fluoro-4-methylphenyl)-3-(3-hydroxyphenyl)urea], for which the IC50 under setting [2] was less than 2 µM.
Turning to `CCCc1ccc(NC(=O)Nc2ccc(F)c(C)c2)cc1` [Compound 656, 1-(4-fluoro-3-methylphenyl)-3-(4-propylphenyl)urea], the IC50 under setting [2] is less than 2 µM.
For the compound `O=C(Nc1ccc(OC(F)F)cc1)Nc1ccnc(Cl)c1` [Compound 628, 1-(2-chloropyridin-4-yl)-3-[4-(difluoromethoxy)phenyl]urea], the IC50 was less than 2 µM.
Consider `CC(C)c1ccc(NC(=O)Nc2ccc(F)cc2)cc1` [Compound 326, 1-(4-fluorophenyl)-3-(4-isopropylphenyl)urea], for which the IC50 under setting [2] was less than 2 µM.
Take `CCOc1cccc(NC(=O)Nc2ccc(F)cc2)c1` [Compound 204, N-(3-ethoxyphenyl)-N′-(4-fluorophenyl)urea]: the concentration for half-maximal inhibition (IC50) under setting [1] is less than 2 µM.
Turning to `O=C(Nc1ccccc1)Nc1ccc(N2CCCCC2)cc1` [Compound 167, N-phenyl-N′-(4-piperidin-1-ylphenyl)urea], the IC50 under setting [1] is less than 2 µM.
`Cc1ccnc(NC(=O)Nc2ccc(OC(F)F)cc2)c1` [Compound 151, N-[4-(difluoromethoxy)phenyl]-N′-(4-methylpyridin-2-yl)urea]: the IC50 under setting [1] was less than 2 µM.
Turning to `CCOC(=O)c1cccc(NC(=O)Nc2ccc(C)cc2)c1` [Compound 643, ethyl 3-({[(4-methylphenyl)amino]carbonyl}amino)benzoate], the 50% inhibitory concentration (IC50) under setting [2] is less than 2 µM.
Turning to `Cc1cc(C)cc(NC(=O)Nc2cccc(OC(F)F)c2)c1` [Compound 710, 1-[3-(difluoromethoxy)phenyl]-3-(3,5-dimethylphenyl)urea], the IC50 under setting [2] was less than 2 µM.
As for `COCc1ccc(NC(=O)Nc2ccc(Cl)cc2)cc1` [Compound 395, 1-(4-chlorophenyl)-3-[4-(methoxymethyl)phenyl]urea], the IC50 under setting [2] is less than 2 µM.
Take `CCOc1ccc(NC(=O)Nc2ccc(CC)cc2)cc1` [Compound 388, 1-(4-ethoxyphenyl)-3-(4-ethylphenyl)urea]: the IC50 under setting [2] is less than 2 µM.
On the same count and under the same terms, the figure for `CC(=O)c1ccc(NC(=O)Nc2ccc(C)c(F)c2)cc1` [Compound 450, 1-(4-acetylphenyl)-3-(3-fluoro-4-methylphenyl)urea] is less than 2 µM.
For `CCc1ccc(NC(=O)Nc2cccc(C)c2)cc1` [Compound 59, N-(4-ethylphenyl)-N′-(3-methylphenyl)urea], the IC50 under setting [3] is less than 2 µM.
For the compound `Cc1cccc(NC(=O)Nc2ccc(OCC#N)cc2)c1` [Compound 464, 1-[4-(cyanomethoxy)phenyl]-3-(3-methylphenyl)urea], the IC50 under setting [2] is less than 2 µM.
`Cc1ccc(NC(=O)Nc2ccc(Cl)nc2)cc1F` [Compound 781, 1-(6-chloropyridin-3-yl)-3-(3-fluoro-4-methylphenyl)urea]: under setting [2], the IC50 was less than 2 µM.
Regarding `COc1ccc(NC(=O)Nc2ccc(OCC#N)cc2)cc1` [Compound 589, 1-[4-(cyanomethoxy)phenyl]-3-(4-methoxyphenyl)urea], the IC50 under setting [2] is less than 2 µM.
Regarding `CC(C)c1ccccc1NC(=O)Nc1cccc(OC(F)F)c1` [Compound 576, 1-[3-(difluoromethoxy)phenyl]-3-(2-isopropylphenyl)urea], under setting [2], the IC50 is less than 2 µM.
In the case of `CCCc1ccc(NC(=O)Nc2ccc(C(=O)OC)cc2)cc1` [Compound 651, methyl 4-({[(4-propylphenyl)amino]carbonyl}amino)benzoate], under setting [2], the IC50 was less than 2 µM.
For `CCc1ccc(NC(=O)Nc2ncccc2C)cc1` [Compound 639, 1-(4-ethylphenyl)-3-(3-methylpyridin-2-yl)urea], under setting [2], the IC50 is less than 2 µM.
For the compound `CCc1ccc(NC(=O)Nc2cc(OC)ncn2)cc1` [Compound 642, 1-(4-ethylphenyl)-3-(6-methoxypyrimidin-4-yl)urea], under setting [2], the IC50 is less than 2 µM.
For `CCOc1ccc(NC(=O)Nc2cccc(C(C)=O)c2)cc1` [Compound 266, N-(3-acetylphenyl)-N′-(4-ethoxyphenyl)urea], the IC50 under setting [1] was less than 2 µM.
Consider `CC(C)Oc1ccc(NC(=O)Nc2cccc(Cl)c2)cc1` [Compound 404, 1-(3-chlorophenyl)-3-(4-isopropoxyphenyl)urea], for which the IC50 under setting [2] was less than 2 µM.
In the case of `COc1cc(NC(=O)Nc2ccc(OC(F)F)c(OC)c2)ccc1OC(F)F` [Compound 54, N,N′-bis[4-(difluoromethoxy)-3-methoxyphenyl]urea], the IC50 under setting [3] is less than 2 µM.
Turning to `CC(C)Oc1cccc(NC(=O)Nc2ccc([N+](=O)[O-])cc2)c1` [Compound 563, 1-(3-isopropoxyphenyl)-3-(4-nitrophenyl)urea], under setting [2], the IC50 was less than 2 µM.
With `O=C(Nc1cccc(F)c1)Nc1cccc(OC(F)F)c1` [Compound 371, 1-[3-(difluoromethoxy)phenyl]-3-(3-fluorophenyl)urea], the 50% inhibitory concentration (IC50) under setting [2] was less than 2 µM.
Consider `CCOC(=O)c1cccc(NC(=O)Nc2ccc(C(=O)OC(C)C)cc2)c1` [Compound 725, ethyl 3-[({[4-(isopropoxycarbonyl)phenyl]amino}carbonyl)amino] benzoate], for which the half-maximal inhibitory concentration (IC50) under setting [2] is less than 2 µM.
As for `O=C(Nc1ccc(Cl)cc1)Nc1ccc2c(c1)CCC2` [Compound 443, 1-(4-chlorophenyl)-3-(2,3-dihydro-1H-inden-5-yl)urea], the IC50 under setting [2] was less than 2 µM.
For the compound `COCc1cccc(NC(=O)Nc2ccc(C(C)C)cc2)c1` [Compound 571, 1-(4-isopropylphenyl)-3-[3-(methoxymethyl)phenyl]urea], the IC50 under setting [2] was less than 2 µM.
`CCCOc1ccc(NC(=O)Nc2cccc(F)c2)cc1` [Compound 361, 1-(3-fluorophenyl)-3-(4-propoxyphenyl)urea]: under setting [2], the IC50 was less than 2 µM.
`CCOC(=O)c1ccc(NC(=O)Nc2ccc(F)c(F)c2)cc1` [Compound 739, ethyl 4-({[(3,4-difluorophenyl)amino]carbonyl}amino)benzoate]: the IC50 under setting [2] was less than 2 µM.

These data come from US20090239841A1, “Diaryl Ureas as CB1 Antagonists” (priority 2004, published 2009).
